Laboratory results from patent publication US20100292178A1, “Method of treating non-insulin dependent diabetes mellitus and related complications” (priority 2003, published 2010).
Where two headings read alike, the source gives them in different places.

How the values were obtained:
[1] = cited from earlier work
[2] = parameters: species or system domestic rabbits; settings: rabbit, in vivo
Procedure: The effect of the berberine is the most quickly and distributed extensively, when the berberine is labeled with Hydrogen 3 and is administered to domestic rabbits by direct feeding that berberine is injected through a non-invasive tube directly through the mouth or by injection. […] The total amount in the blood plasma is 38%±3%.
(§1) All samples are calibrated by using an internal standard.

[3] = Excretion of labeled berberine after injection into large mice; type: in vivo; settings: within six days after injection
Source text: Within the six days after the injection of the labeled berberine into large mice, the amounts of the labeled berberine found in the mice's urine and feces were 73% and 10.9% of the injected concentration respectively. The labeled berberine found in the urine was primarily the original form although some of it became metabolized products.
as §1

[4] = rabbit, in vivo
Procedure: Pharmokinetic properties of berberine are performed by conventional method involving radioactive isotope. […] All samples are calibrated by using an internal standard.
300 μg quinidine is added to the test tube as an internal standard. One ml chloroform is added into the test tube, which is shaken for ten minutes. Then, the test tube is centrifuged at 400 rev/min for five minutes with a sufficient gravity for separating residues from its liquid. An absolute amount of 0.8 ml of the chloroform is collected by a pipette and is subsequently dried by blowing air. The residue from the dried chloroform is collected and dissolved in a suitable amount of dry ethanol which contains essentially no water. The sample is ready for analysis using thin layer chromatography.
A silica gel plate is cut into nine strips, each being 1.0 cm wide. Separation is conducted under running buffer of ethyl acetate, ethyl methanoate, methanol and water mixture at a ratio of 5.4:4.6:1.2:1.0. The sample size is 5 μl. When a desirable separation is achieved, the strips are scanned for reflective intensity at wavelength λex, 350 nm and λem 550 nm using Japanese Shimatsu CS-900 double wavelengths thin layer reflective straight line scanner with a Xenon lamp. […] All scans are performed with 0.5 mm×10 mm slit, at scanning speed 20 mm/min, and at recording paper speed 10 mm/min.
After the blood serum's pH is adjusted to basic, ethyl ether is used to extract berberine. After it is dried, the residues are dissolved in a mobile phase. A fixed amount of sample is introduced into the HPLC system containing a reverse C18 column. The mobile phase is methanol, water and ethylenediamine at a ratio of 75:25:0.5. The pH is adjusted to 6.8 by using acetic acid. Concentration or amount is monitored at wavelength (λ) 345 nm.
C=Ae^−a+Be^−β−(A−B)e^−kat, where ka is average rate constant weighed by their coefficients: ka=(Aβ+Bα)/(A+B).

[5] = Pharmacokinetics of a single oral dose of berberine in human patients; type: in vivo; settings: 300 mg orally
[6] = test system: patients with diabetic limb-end gangrene; experiment: Clinical observation of diabetic limb-end gangrene treated with Glucosynergy
[7] = 70 cases Observation Group, 50 cases Contrast Group
[8] = Treatment Group 18 cases, Contrast Group 6 cases

Which results are given for `OC[C@H]1O[C@@H](O[C@@H]2OC=C[C@H]3[C@H](O)[C@@H]4O[C@]4(CO)[C@@H]23)[C@H](O)[C@@H](O)[C@@H]1O` [catalpol]?
solubility in lipophilic organic solvents ([1]; chloroform, benzene, petroleum ether): almost insoluble; solubility in water and methanol [1]: highly soluble

With `COc1ccc2cc3[n+](cc2c1OC)CCc1cc2c(cc1-3)OCO2` [berberine] as the compound, how does the “tissue concentration measured by radiation intensity” value [2] read?
Its value is “the highest in the lung, and then in liver, spleen, kidney and heart”.

What about the “total amount in the blood plasma” value [2] of the same compound?
The value was 38%±3%.

And the “amount of labeled berberine found in feces” value [3]?
The value was 10.9 % of the injected concentration.

What about the “amount of labeled berberine found in urine” value [3] of the same compound?
The value was 73 % of the injected concentration.

And the “time to maximum concentration in the blood” value [4]?
The value was “about 50 minutes”.

And the “apparent distribution volume (Vd)” value ([4]; iv)?
Its value is 22.1 ± 1.71 L/kg.

And the “apparent half life for elimination (t½ β)” value ([4]; iv)?
The value was 35.8 ± 2.0 h.

What about the “apparent half life of distribution (t½ α)” value ([4]; iv) of the same compound?
Its value is 1.03 ± 0.11 h.

And the apparent drug distribution volume (Vd) ([4]; po)?
Its apparent drug distribution volume (Vd) is 20 ± 3 L/kg.

What about the “apparent half life for elimination (t½ β)” value ([4]; po) of the same compound?
Its value is 35.3 ± 1.3 h.

What about the “apparent half life of distribution (t½ α)” value ([4]; po) of the same compound?
Its value is 1.41 ± 0.16 h.

What about the “apparent rate constant ka” value ([4]; po) of the same compound?
Its value is 2.45±0.22 per hour.

What about the “maximum plasma concentration Cmax” value [5] of the same compound?
Its value is 395 ng/mL.

What about the “t½ corresponding to elimination rate constant Ke” value [5] of the same compound?
Its value is 2.94 h.

And the Tmax ([5]; human, plasma, po, read-out: time to peak plasma concentration, tmax)?
The Tmax was 2.37 h.

What about the half-life ([5]; human, plasma, po, read-out: t½ corresponding to apparent absorption rate constant ka (converted)) of the same compound?
The half-life was 0.87 h.

With `CN(C)C(=N)N=C(N)N` [Glucophage] as the compound, how does the “electrocardiogram hypertrophic cardiomyopathy: effective” value [6, 7] read?
The value was 12 cases.

And the “electrocardiogram hypertrophic cardiomyopathy: not effective” value [6, 7]?
The value was 35 cases.

And the “electrocardiogram hypertrophic cardiomyopathy: outstandingly effective” value [6, 7]?
The value was 3 cases.

What about the “electrocardiogram hypertrophic cardiomyopathy: total effective rate” value [6, 7] of the same compound?
Its value is 30%.

What about the Fibrinogen ([6]; After Treatment) of the same compound?
The Fibrinogen was 3.45 ± 0.44 q/L.

What about the HDL ([6]; After Treatment) of the same compound?
The HDL was 1.12 ± 0.24 mmol/L.

What about the LDL ([6]; After Treatment) of the same compound?
The LDL was 4.51 ± 0.81 mmol/L.

What about the “Red Cells Accumulation” value ([6]; After Treatment) of the same compound?
Its value is 49.50 ± 4.86%.

And the TC ([6]; After Treatment)?
Its TC is 5.40 ± 0.76 mmol/L.

What about the TG ([6]; After Treatment) of the same compound?
The TG was 3.39 ± 0.76 mmol/L.

And the “Total Blood Viscosity High Excise” value ([6]; After Treatment)?
Its value is 6.33 ± 0.34 mpa · s.

And the “Total Blood Viscosity Low Excise” value ([6]; After Treatment)?
Its value is 15.19 ± 2.10 mpa · s.

And the “Viscosity Plasma” value ([6]; After Treatment)?
The value was 2.45 ± 0.37.

What about the Fibrinogen ([6]; Before Treatment) of the same compound?
Its Fibrinogen is 3.90 ± 0.81 q/L.

And the HDL ([6]; Before Treatment)?
Its HDL is 1.07 ± 0.20 mmol/L.

And the LDL ([6]; Before Treatment)?
Its LDL is 5.27 ± 1.24 mmol/L.

And the “Red Cells Accumulation” value ([6]; Before Treatment)?
Its value is 49.58 ± 4.34%.

And the TC ([6]; Before Treatment)?
The TC was 5.89 ± 1.17 mmol/L.

What about the TG ([6]; Before Treatment) of the same compound?
The TG was 3.54 ± 0.67 mmol/L.

What about the “Total Blood Viscosity High Excise” value ([6]; Before Treatment) of the same compound?
The value was 6.23 ± 0.57 mpa · s.

And the “Total Blood Viscosity Low Excise” value ([6]; Before Treatment)?
Its value is 15.21 ± 2.17 mpa · s.

What about the “Viscosity Plasma” value ([6]; Before Treatment) of the same compound?
The value was 2.72 ± 0.66.

And the cases ineffective ([6]; Contrast Group 6 cases)?
The cases ineffective was 3 cases.

And the cases improved [6, 8]?
Its cases improved is 2 cases.

And the cases recovered [6, 8]?
The cases recovered was 1 cases.

What about the “24 hours fixed quantity of uric sugar, Before Treatment” value ([6]; baseline) of the same compound?
Its value is 15.23 ± 3.02 g/24 h.

What about the “Serum SOD Vitality, Before Treatment” value ([6]; baseline) of the same compound?
Its value is 89.96 ± 18.21 nu/L.

What about the “24 hours fixed quantity of uric sugar, After Treatment” value ([6]; human, in vivo) of the same compound?
Its value is 8.37 ± 1.89 g/24 h.

What about the “Serum SOD Vitality, After Treatment” value ([6]; human, in vivo) of the same compound?
Its value is 94.21 ± 17.03 nu/L.

What about the “Serum SOD Vitality, Value of Difference” value ([6]; human, in vivo) of the same compound?
Its value is −4.25 ± 3.33 nu/L.
